In publication PMC9918186, “Interaction of Positively Charged Oligopeptides with Blood Plasma Proteins” (International Journal of Molecular Sciences, 2023):

Columns and labels:
[1] = target: T1, BSA (Bos taurus, UniProt P02769); test: CD spectroscopy, secondary structure of BSA with peptide; set-up: species or system bovine
T1 construct: purchased Sigma Aldrich
Procedure: Circular dichroism spectroscopy, similar to fluorescence and FTIR spectroscopies, is a useful method to determine the changes in the secondary structure of proteins in case of the presence of compounds that can interact with protein molecules. Therefore, in this study, the CD spectra for BSA protein and GGF fraction, in the absence and presence of analyzed peptides L1, L2, and L3, were measured (Figure 3). We wanted to check the changes in the course of the spectrum after adding every portion of the analyzed peptides, from 1:0 to 1:1.5 protein to L1–L3 molar ratios.
Circular dichroism (CD) spectroscopy was performed using the Jasco J-1500 magnetic circular dichroism spectrometer (JASCO International CO., Tokyo, Japan). All measurements for the protein solutions in the absence and presence of the analyzed peptides L1, L2, and L3 were made at room temperature under simulated physiological conditions in pH 7.4, in phosphate buffer as a solvent. The phosphate buffer not only controls the stable pH but also imitates the biological environments. However, its use leads to some limitations for CD measurements due to containing NaCl and KCl. The spectra were baseline corrected (phosphate buffer was used as a baseline) and were measured in the range of 205–250 nm at a scan rate speed of 50 nm/min, with a response time of 1 s, and a 10 mm or 5 mm path length for BSA and GGF, respectively. The concentrations of proteins and analyzed peptides were 1 × 10^−6 mol/dm^3 and 1 × 10^−3 mol/dm^3, respectively. Experiments were performed with protein to ligand molar ratios: 1:0, 1:0.25, 1:0.5, 1:0.75, 1:1, and 1:1.5. In total, 3 cm^3 of a solution of each protein was titrated by successive additions of analyzed peptides. The results were analyzed by CD Multivariate Calibration Creation and CD Multivariate SSE programs (JASCO International CO., Tokyo, Japan), with the conversion of protein concentrations for mean residue molar concentrations.

[2] = target: bovine serum albumin (BSA) (Bos taurus, UniProt P02769); test: Fluorescence quenching of BSA by peptides L1–3; details: for Stern–Volmer constant Ksv / logKb: BSA 1.0 µM, phosphate buffer; for Stern–Volmer constant Ksv: peptide 0.25–2.0 µM, λex 280 nm; for logKb: double log regression; for quenching rate constant kq: from Ksv with τ0 10^−8 s assumed
Sequence of bovine serum albumin (BSA) (P02769 25-607): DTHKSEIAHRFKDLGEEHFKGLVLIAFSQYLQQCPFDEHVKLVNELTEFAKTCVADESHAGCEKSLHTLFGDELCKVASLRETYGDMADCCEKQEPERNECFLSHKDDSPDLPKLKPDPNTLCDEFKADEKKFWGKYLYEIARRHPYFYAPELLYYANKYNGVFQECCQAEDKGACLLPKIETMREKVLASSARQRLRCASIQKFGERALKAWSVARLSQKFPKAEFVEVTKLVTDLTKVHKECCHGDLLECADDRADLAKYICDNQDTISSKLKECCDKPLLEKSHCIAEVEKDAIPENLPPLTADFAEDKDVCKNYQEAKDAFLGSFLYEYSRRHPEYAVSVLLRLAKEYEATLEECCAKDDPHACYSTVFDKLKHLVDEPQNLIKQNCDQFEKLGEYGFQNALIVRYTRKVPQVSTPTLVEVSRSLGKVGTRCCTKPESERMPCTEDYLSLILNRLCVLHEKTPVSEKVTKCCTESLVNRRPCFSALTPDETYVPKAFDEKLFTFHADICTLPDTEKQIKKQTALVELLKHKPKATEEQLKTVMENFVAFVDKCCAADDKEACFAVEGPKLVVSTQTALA
Procedure: Fluorescence spectroscopy was carried out to characterize the mechanism of the interaction between three plasma proteins, BSA, AAG, and GGF, with the studied peptides. The fluorescence spectra of protein were collected during titration of L1–L3. The excitation wavelength was set at λ = 280 nm (both Trp and Tyr residues were excited).
To confirm this, the fluorescence data were further analyzed by the Stern–Volmer Equation (1) after correction due to the infer filter effect (2):(1) F0/F=1+kqτ[Q]=1+KSV (2) Fcorr=Fobs10^(Aex+Aem)/2 where F0 and F are the fluorescence intensities (after correction) of the protein and protein in the presence of L1–3, respectively, kq is the quenching rate constant, τ0 the average lifetime, [Q] is the L1–3 concentration, Ksv is the Stern–Volmer constant, and Fcorr, and Fobs are the corrected and observed fluorescence intensities, respectively. Aex and Aem are the absorbance values at excitation and emission wavelengths, respectively. A linear regression fit was used to calculate the value of the Stern–Volmer constant (Ksv). Then, assuming the average lifetime of the fluorophore in the excited state for a biomolecule as 10^−8 s, the quenching rate constant (kq) was computed. For dynamic quenching, the maximum scatters collision quenching rate constant for different quenchers with the biopolymers was reported to be 2 × 10^10 dm^3mol^−1s^−1 [55, 56]. […] Collisional quenching occurs when the excited-state fluorophore is deactivated by contact with some other molecule in solution (by collisions). […] This is a dynamic mechanism of quenching. The quenching constant characterizes the quenching mechanism. The maximum value for collisional quenching is 2 × 10^10 dm^3mol^−1s^−1. […] For further confirmation, measurements were made at, in addition to 297 K, temperatures 303 and 308 K. Experimental data points were fitted and analyzed using Equation (1).
Both for the complexes with BSA and with GGF, the binding constant (Kb) and the binding stoichiometry (n) were calculated. […] The values of Kb and n were calculated from the slope and the intercept of the log [(F0 − F)/F] versus log [Q] plot (Figure 2).
The forces involved in the interaction can be identified by measurement at different temperatures and then by thermodynamic analysis. The signs of the thermodynamic parameters identify the type of interactions. The enthalpy change (ΔH°), the entropic change (ΔS°), and the free energy change (ΔG°) were calculated from Equations (4) and (5):(4) […]=−ΔH^°/RT+ΔS^°/R (5) ΔG^°=ΔH^°−TΔS^°=−RTlnKb where Kb is the binding constant and R is the universal gas constant. To determine the thermodynamic parameters, the van’t Hoff plot was first conducted, i.e., the temperature dependence of the binding constant, according to Equation (4). The Kb values at the three temperatures were fitted by the linear regression method. The values of ΔH and ΔS were calculated from the slope and intercept at the fitted line. Next, the free energy change (ΔG°) was obtained from Equation (5).

[3] = BSA:peptide 1:0.25, pH 7.4 phosphate buffer
[4] = BSA:peptide 1:0.5, pH 7.4 phosphate buffer
[5] = BSA:peptide 1:0.75, pH 7.4 phosphate buffer
[6] = BSA:peptide 1:1, pH 7.4 phosphate buffer
[7] = BSA:peptide 1:1.5, pH 7.4 phosphate buffer
[8] = BSA, van't Hoff plot of Kb at 297, 303, 308 K

T1 sequence (P02769 25-607): as above

## Lys-Dab-Dab-Gly-Orn-Pro-His-Lys-Arg-Lys-Dbt [L1]
[1]; [3]
  % Other of BSA: 24.6%
  % β-Sheet of BSA: 6.0%
  % β-Turn of BSA: 10.0%
[1]; BSA:peptide 1:0.25, pH 7.4 phosphate buffer, room temperature, BSA 1 µM
  % α-Helix of BSA: 59.4%
[1]; [4]
  % Other of BSA: 24.8%
  % α-Helix of BSA: 59.2%
  % β-Sheet of BSA: 5.9%
  % β-Turn of BSA: 10.1%
[1]; [5]
  % Other of BSA: 25.0%
  % α-Helix of BSA: 58.6%
  % β-Sheet of BSA: 6.3%
  % β-Turn of BSA: 10.1%
[1]; [6]
  % Other of BSA: 25.0%
  % α-Helix of BSA: 58.5%
  % β-Sheet of BSA: 6.4%
  % β-Turn of BSA: 10.1%
[1]; [7]
  % Other of BSA: 25.1%
  % α-Helix of BSA: 58.2%
  % β-Sheet of BSA: 6.6%
  % β-Turn of BSA: 10.1%
[1]; from 1:0 to 1:1.5 BSA:peptide
  reduction in the percentage of α-helix of BSA: 2.5%
[2]; 297 K, BSA
  number of binding sites n: 0.80 ± 0.02
[2]; 297 K, inner-filter corrected
  Stern–Volmer constant Ksv: 1.55 ± 0.07 × 10^5 dm^3mol^−1
[2]; 297 K
  logKb: 4.07 ± 0.07
  quenching rate constant kq: 1.55 ± 0.07 × 10^13 dm^3mol^−1s^−1
[2]; 303 K, BSA
  number of binding sites n: 0.80 ± 0.04
[2]; 303 K
  Stern–Volmer constant Ksv: 1.21 ± 0.03 × 10^5 dm^3mol^−1
  logKb: 3.95 ± 0.09
  quenching rate constant kq: 1.21 ± 0.03 × 10^13 dm^3mol^−1s^−1
[2]; 308 K, BSA
  number of binding sites n: 0.80 ± 0.02
[2]; 308 K
  Stern–Volmer constant Ksv: 0.70 ± 0.06 × 10^5 dm^3mol^−1
  logKb: 3.72 ± 0.15
  quenching rate constant kq: 0.70 ± 0.06 × 10^13 dm^3mol^−1s^−1
[2]; BSA, from ΔH° − TΔS°
  ΔG°: −23 ± 1 kJmol^−1
[2]; [8]
  ΔH°: −54 ± 2 kJmol^−1
  ΔS°: −106 ± 3 Jmol^−1K^−1
